Measurements as given in paper PMC3486515 (Investigational new drugs, 2010).
Where “and” joins values, the source holds several entries; their conditions need not be identical. Equal values may be shown once. Entries after “also recorded” stand apart in the source; their conditions may differ.

Experiments:
[1] = system: patients with advanced solid tumors
[2] = system: advanced solid tumors; assay: Objective response by RECIST; assay type: in vivo, human
[3] = system: patients with advanced solid tumors; settings: human, in vivo
[4] = system: refractory chronic lymphocytic leukemia (CLL); settings: cited from earlier work
[5] = system: refractory solid tumors; settings: 72-hr infusion schedule; cited from earlier work
[6] = system: IL-6; assay: Serum cytokine levels by cytokine bead array and ELISA; settings: prior to and after flavopiridol infusion
[7] = Plasma pharmacokinetics, LC/MS/MS, non-compartmental analysis
[8] = Flavopiridol protein binding in patient PK samples by micro-equilibrium dialysis; settings: for concentration at 4 h: human, plasma, intravenous, Mean free flavopiridol plasma concentration at the end of the 4-hour infusion
[9] = All dose levels, 34 pts, first dose, mean ± SD
[10] = dose level 1, 1B (30+30 mg/m^2 bolus+infusion), 6 pts, first dose, mean ± SD
[11] = dose level 2, 2B (30+45 mg/m^2 bolus+infusion), 9 pts, first dose, mean ± SD
[12] = dose level 3 (30+60 mg/m^2 bolus+infusion), 9 pts, first dose, mean ± SD
[13] = dose level 4 (30+75 mg/m^2 bolus+infusion), 2 pts, first dose, mean ± SD
[14] = dose level −1, −1B (20+20 mg/m^2 bolus+infusion), 8 pts, first dose, mean ± SD

Q: For `C[C@@H]1C[C@H]2[C@@H]3CCC4=CC(=O)C=C[C@]4(C)[C@@]3(F)[C@@H](O)C[C@]2(C)[C@@]1(O)C(=O)CO` [dexamethasone], which “Effect on frequency/incidence of CKRS” value ([1]; prophylactic dexamethasone 20 mg prior to bolus dose of flavopiridol) is on record?
A: did not impact the frequency of CKRS; also recorded: did not impact the incidence of CKRS; also recorded: not associated with decreased occurrence of CKRS

Q: Which “Patients off study for progressive disease (PD)” value ([2]; 34 patients) does the source give for `CN1CC[C@H](c2c(O)cc(O)c3c(=O)cc(-c4ccccc4Cl)oc23)[C@H](O)C1` [flavopiridol] here?
A: 18 patients

Q: What about the “Antitumor (objective) responses” value ([2]; 34 patients with advanced solid tumors, RECIST) of the same compound?
A: No antitumor responses were observed; also recorded: No objective responses were observed

Q: And the “Patients with PD” value ([2]; after completing two cycles)?
A: seventeen

Q: What about the “Adverse event: Deep venous Thrombosis” value [3] of the same compound?
A: 1

Q: And the “Adverse event: Diaphories” value [3]?
A: 8 (24) N (%)

Q: What about the “Adverse event: Dizziness” value [3] of the same compound?
A: 6 (35) N (%)

Q: And the “Adverse event: Dysphagia” value [3]?
A: 1

Q: And the “Adverse event: Dyspnea” value [3]?
A: 5

Q: What about the “Adverse event: Elevated Alk Phos” value [3] of the same compound?
A: 2

Q: What about the “Adverse event: Febrile neutropenia” value [3] of the same compound?
A: 1

Q: And the “Adverse event: Fever” value [3]?
A: 4 (12) N (%)

Q: What about the “Adverse event: Hyperbilrubinemia” value [3] of the same compound?
A: 4 (12) N (%)

Q: And the “Adverse event: Hypercalcemia” value [3]?
A: 1

Q: What about the “Adverse event: Hypoxemia” value [3] of the same compound?
A: 2

Q: What about the “Adverse event: Nausea and/or vomiting” value [3] of the same compound?
A: 20 (59) N (%)

Q: And the “Adverse event: Somonolence” value [3]?
A: 4 (12) N (%)

Q: And the “Adverse event: Tumor lysis syndrome” value [3]?
A: 1

Q: What about the “Patients off study for grade 3 AEs” value [3] of the same compound?
A: 6 patients

Q: What about the “Patients off study for grade 3 AST/ALT” value [3] of the same compound?
A: 2 n

Q: And the “Patients off study for grade 3 CKRS” value [3]?
A: 4 n

Q: What about the “Patients with CKRS” value [3] of the same compound?
A: 41%

Q: And the “Time to resolution of CKRS symptoms” value [3]?
A: ≤ 6 h

Q: And the Partial response rate ([4]; PK-directed schedule, single agent, CLL)?
A: 40%

Q: What about the Response rate ([4]; phase II study, refractory CLL patients) of the same compound?
A: approximately 50%

Q: And the “MTD (bolus+infusion)” value ([4]; refractory CLL patients)?
A: 30+50 mg/m^2

Q: And the “Maximum-tolerated dose (MTD), infusion” value ([4]; refractory CLL, 4-hr infusion)?
A: 50 mg/m^2

Q: And the “Maximum-tolerated dose (MTD), bolus” value ([4]; refractory CLL, 30-minute loading dose)?
A: 30 mg/m^2

Q: What about the “Major dose-limiting toxicity (DLT)” value [5] of the same compound?
A: Secretory diarrhea

Q: And the IL-6 serum levels [6]?
A: associated with flavopiridol infusion

Q: And the “Other serum cytokines (IL-2, IL-4, IL-10, TNF-α, IFNγ)” value [6]?
A: No other cytokines were associated with flavopiridol infusion

Q: What about the “Mean end-of-infusion concentration (C0.5)” value ([7]; 20 mg/m^2 bolus dose) of the same compound?
A: 0.91 ± 0.26 mM

Q: And the “Mean end-of-infusion concentration (C0.5)” value ([7]; 30 mg/m^2 bolus dose)?
A: 1.42 ± 0.66 mM

Q: And the “Dose proportionality of plasma concentrations (Cmax) and AUC” value ([7]; 5 doses from 40 to 105 mg/m^2)?
A: increased proportionally with dose; also recorded: proportional increases in Cmax and AUC

Q: And the “AUCO-∞” value [7, 9]?
A: 13.6 ± 7.0 hr x µM

Q: What about the CL [7, 9] of the same compound?
A: 12.7 ± 6.3 L/hr/m^2

Q: What about the “V2 (volume of distribution)” value [7, 9] of the same compound?
A: 241 ± 149 L/m^2

Q: What about the “AUCO-∞” value [7, 10] of the same compound?
A: 13.2 ± 3.4 hr x µM

Q: And the CL [7, 10]?
A: 11.9 ± 3.0 L/hr/m^2

Q: What about the “V2 (volume of distribution)” value [7, 10] of the same compound?
A: 198 ± 82 L/m^2

Q: And the “AUCO-∞” value [7, 11]?
A: 14.3 ± 6.8 hr x µM

Q: And the CL [7, 11]?
A: 15.3 ± 5.8 L/hr/m^2

Q: And the Cmax [7, 11]?
A: 1790 ± 830 nM

Q: And the “V2 (volume of distribution)” value [7, 11]?
A: 307 ± 155 L/m^2

Q: What about the “AUCO-∞” value [7, 12] of the same compound?
A: 16.6 ± 8.6 hr x µM

Q: And the CL [7, 12]?
A: 16.5 ± 7.0 L/hr/m^2

Q: And the “V2 (volume of distribution)” value [7, 12]?
A: 309 ± 168 L/m^2

Q: What about the “AUCO-∞” value [7, 13] of the same compound?
A: 20.8 hr x µM and 20.8 ± 5.6 hr x µM

Q: What about the CL [7, 13] of the same compound?
A: 13.1 ± 3.6 L/hr/m^2

Q: And the Cmax [7, 13]?
A: 2710 ± 1080 nM

Q: What about the “V2 (volume of distribution)” value [7, 13] of the same compound?
A: 260 ± 28 L/m^2

Q: And the “AUCO-∞” value [7, 14]?
A: 7.9 hr x µM and 7.9 ± 4.2 hr x µM

Q: And the CL [7, 14]?
A: 6.1 ± 2.5 L/hr/m^2

Q: What about the “V2 (volume of distribution)” value [7, 14] of the same compound?
A: 117 ± 99 L/m^2

Q: And the AUC(0-inf) ([7]; human, plasma, intravenous, AUC0–∞, overall mean, all doses (40–105 mg/m^2), 34 patients)?
A: 13.6 ± 7 µM·h

Q: And the half-life ([7]; human, plasma, intravenous, T1/2, All dose levels, 34 pts, first dose, mean ± SD)?
A: 852 ± 504 min

Q: What about the Tmax ([7]; human, plasma, intravenous, Tmax, All dose levels, 34 pts, first dose, mean ± SD) of the same compound?
A: 2.02 ± 1.87 h

Q: What about the concentration at 4 h ([8]; patients who did not experience CKRS (N=20), cycle 1) of the same compound?
A: 20 ± 9 nM

Q: And the concentration at 4 h ([8]; patients with grade 1 or higher CKRS during cycle 1)?
A: 35 ± 26 nM

Q: What about the “Mean free flavopiridol AUC” value ([8]; patients with CKRS during cycle 1) of the same compound?
A: 318 ± 220 nM·h

Q: What about the “Mean free flavopiridol AUC” value ([8]; patients without observed CKRS during cycle 1) of the same compound?
A: 215 ± 103 nM·h

Q: And the “Maximum-tolerated dose, bolus” value ([1]; 30-min bolus, weekly for 4 weeks on a 6-week cycle, patients with advanced solid tumors, dose level −1B)?
A: 20 mg/m^2

Q: And the “Maximum-tolerated dose, infusion” value ([1]; infusion over 4 hours after bolus, weekly for 4 weeks on a 6-week cycle, patients with advanced solid tumors, dose level −1B)?
A: 20 mg/m^2

Q: And the “Deaths attributed to CKRS” value ([1]; on study)?
A: One death on the study was attributed to CKRS

Q: What about the “MTD (bolus+infusion)” value ([1]; patients with advanced solid tumors) of the same compound?
A: 20+20 mg/m^2
